Data from patent US20230255974A1, “USE OF THYROMIMETICS FOR THE TREATMENT OF CANCER” (THE UNIVERSITY OF VERMONT, priority 2020, published 2023).
Entries after “also recorded” stand apart in the source; their conditions may differ. Read-outs that look alike come from different tables or passages of the source.

Experiments:
[1] = test system: MDA-MB-468 cells (EV, TRβ); test: Relative cell growth by cell counting, triple negative breast cancer cells; type: cell-based; conditions: MDA-MB-468-TRβ, 10 nM GC-1, 8 days
Source text: MDA-MB-468 cells were transduced with empty vector (EV) (FIGS. 29A, 29C) or thyroid hormone receptor beta (TRβ) (FIGS. 29B, 29D) and maintained in complete media. […] Data are mean+/−SD; * indicates p<0.05 determined by t-test.

[2] = test system: SW1736 cells (SW-EV, SW-TRβ); test: Apoptosis assay (PARP1 and caspase 3 cleavage, immunoblot); type: cell-based, human; conditions: SW-TRβ
Source text: Immunoblot Analysis. […] Proteins were resolved by polyacrylamide gel electrophoresis on 10% sodium dodecyl sulfate gels EC60752 (Life Technologies) and immobilized onto nitrocellulose membranes (GE Healthcare) by electroblot (Bio-Rad Laboratories). Specific proteins were detected by immunoblotting with the indicated antibodies (Table 4); immunoreactive proteins were detected by enhanced chemiluminescence (Thermo Scientific) on a ChemiDoc XRS+ (Bio-Rad Laboratories).
Apoptosis Assay. Cells were plated at a density of 50,000 cells/well and treated with vehicle (1 N NaOH) or 10^−8 M T3. After 5 days the cells were lysed for analysis by immunoblot. Poly (ADP-ribose) polymerase 1 (PARP1) and Caspase 3 cleavage were assessed to measure apoptotic signaling.
Immunoblot Analysis. […] Proteins were resolved by polyacrylamide gel electrophoresis on 10% sodium dodecyl sulfate gels EC60752 (Thermo Fisher Scientific) and immobilized onto nitrocellulose membranes (GE Healthcare, Chicago, Ill., USA) by electroblot (Bio-Rad Laboratories, Hercules, Calif., USA). Specific proteins were detected by immunoblotting with the indicated antibodies (Table 4); immunoreactive proteins were detected by enhanced chemiluminescence (Thermo Scientific) on a ChemiDoc XRS+ (Bio-Rad Laboratories).

KTC-2 [3] = test: Xenograft model of anaplastic thyroid tumor; type: in vivo, SCID female mice; conditions: KTC-2 subcutaneous xenograft, GC-1 0.3 mg/Kg, Buparlisib 5 mg/Kg, approximately 6 week study
Procedure: Doses of Buparlisib tested in xenograft studies range from 5 mg/Kg to 20 mg/Kg.
Drugs were prepared at concentrations suitable for intraperitoneal (i.p.) injection of 5 μL/g body weight. […] Drug stocks were prepared by dissolving sobetirome and Sob-AM2 at 1 mg/mL in dimethyl sulfoxide (DMSO). […] Vehicles were prepared with 20% DMSO in saline.”
Buparlisib was used as a 5 mg/kg buparlisib treatment (recommended by Novartis). Buparlisib suspension was prepared in 0.5% methyl cellulose and 0.5% Tween20.
Tumors were established by subcutaneous injection of 5×10^6 tumor cells in 100 μL of phosphate-buffered saline into the flank region into SCID female mice. Thyroid cancer occurs in females ˜4× more often than in males. As funding is available; both males and females will be tested.
The study was approximately a 6 week study. Tumor mass was measured, and tumors and tissues were saved for IHC and RNAseq.

[4] = test system: MDA-MB-468 cells (EV, TRβ); conditions: triple negative breast cancer cells with low TRβ expression
Procedure: Triple negative breast cancer were examined next. […] TNBC cancers and other advanced solid tumors have lower endogenous levels of expression of TRβ. […] Cell migration was measured by scratch assay (FIG. 28). […] Data are mean+/−SD; *indicates p<0.05 determined by t-test.

[5] = test system: SW1736, 8505C, OCUT2, and KTC-2 cells; conditions: GC-1 concentrations higher than 10^-8M
[6] = test system: SW1736 cells (SW-EV, SW-TRβ); conditions: SW-TRβ1, GC-1 10^−8M
Procedure: (§3) Tumorsphere Assay. Cancer stem cell tumorspheres formed from ATC cells (thyrospheres) were used to assess self-renewal and sphere-forming efficiency. For generating thyrospheres, adherent monolayer cells were dissociated with Trypsin-EDTA, and single cells were moved to round-bottom ultra-low attachment 24-well plates at a density of 1000 cells/well (Corning). […] Where indicated, adherent cells were treated with 0.5 μM Buparlisib, 0.5 μM Alpelisib, 1 nM Palbociclib, 5 μM Sorafenib, or vehicle for 72 hours prior to thyrosphere-forming assay. […] Thyrospheres grew for seven days and were then counted with an inverted microscope.

[7] = test system: SW1736, 8505C, OCUT2, and KTC-2 cells; test: Cell migration by scratch (wound healing) assay, inhibitors with or without GC-1; type: cell-based, human
Procedure: Migration Assay. Cell migration was determined by wound healing assay. Cells were plated and allowed to grow to 100% confluency. Four hours prior to scratching, cells were treated with […] Mitomycin C. A scratch was performed with a P1000 pipette tip and debris was washed away with PBS. […] Images were obtained at 0, 16, 24, 48, and 72 hours or until 100% wound closure, depending on the cell type. The wound closure was measured using the ImageJ macro “Wound Healing Tool” (https://github.com/MontpellierRessourcesImagerie/imagej_macros_and_scripts/wiki/Wound-Healing-Tool). Percent closure was calculated relative to the area of the initial scratch.

MCF7 = test: Mammosphere growth, Luminal A breast cancer cells; type: cell-based
[8] = test system: SW1736 cells (SW-EV, SW-TRβ); type: cell-based, human; conditions: for ATC cell death: GC-1 10^−8 M; for reduction in cell growth (AUC of growth curve): GC-1 10^−8M, 4 days
[9] = test system: SW1736, 8505C, OCUT2, and KTC-2 cells; test: Thyrosphere outgrowth, unmodified ATC cell lines; type: cell-based, human; conditions: inhibitor three days before plating, or 10 nM GC-1 for 7 days
Procedure: as §3

KTC-2 [10] = test: Cell growth with STAT1 activator 2-NP; type: cell-based; conditions: 0-50 μM 2-NP, 24 hours
Procedure: (§1) Growth Assays. Cell growth was measured either through live cell imaging or by cell counting at discrete points. Live cell imaging was used to assess the growth kinetics of SW-EV and SW-TRβ. To perform live cell imaging, 5000 cells were plated per well in 24 well plates. After 24 hours in phenol red free, charcoal stripped media, media was supplemented with either 10^−8 M T3 or equivolume vehicle (NaOH). Every two hours cells were imaged with a Lionheart automated microscope (BioTek) and quantified with Gen5 software (BioTek). The cells entered the log phase of growth at approximately 48 hours, and the portion of the curve following this point was used to calculate the doubling time of the cells. In order to measure growth manually, 25,000 cells were plated per well in a six well plate. Cells were grown in full thyroid media with the addition of 2-(1,8-Naphthyridin-2-yl)phenol (2-NP) (Abcam) or vehicle (DMSO). Every 24 hours cell counts were assessed by hemocytometer.
(§2) STAT1 has anti-proliferative activity, raising the question whether it can be exploited pharmacologically to reduce ATC growth. Baseline expression of key genes in the JAK1-STAT1 pathway and TR isoform levels (TRβ and TRα) in 3 additional anaplastic thyroid cancer cell lines are illustrated in FIG. 10C.

OCUT-2 = test: Cell growth with STAT1 activator 2-NP; type: cell-based; conditions: 0-50 μM 2-NP, 24 hours
Procedure: as §1, §2

SW1736 = test: Cell growth with STAT1 activator 2-NP; type: cell-based, human; conditions: 0-50 μM 2-NP, 24 hours
Procedure: as §1, §2

[11] = test system: SW1736 cells (SW-EV, SW-TRβ); test: LY294002 inhibition of ATC cell growth; type: cell-based; conditions: Homo sapiens
PI3K = PI3K activity by pAkt and p mTOR immunoblot; type: cell-based, human; conditions: SW-TRβ vs SW-EV, LY294002 24 hr, T3 10^−8 M
Procedure: Immunoblot Analysis. Proteins were isolated from whole cells in lysis buffer (20 mM Tris-HCl [pH 8], 137 mM NaCl, 10% glycerol, 1% Triton X-100, and 2 mM EDTA) containing Protease Inhibitor Cocktail 78410 (Thermo Scientific). Proteins were resolved by polyacrylamide gel electrophoresis on 10% sodium dodecyl sulfate gels EC60752 (Life Technologies) and immobilized onto nitrocellulose membranes (GE Healthcare) by electroblot (Bio-Rad Laboratories). Specific proteins were detected by immunoblotting with the indicated antibodies (Table 4); immunoreactive proteins were detected by enhanced chemiluminescence (Thermo Scientific) on a ChemiDoc XRS+ (Bio-Rad Laboratories).

NthyOri = test: LY294002 growth of normal-like thyroid cells; type: cell-based; conditions: normal-like thyroid cells NthyOri in which TRβ is expressed
[12] = test system: SW1736 cells (SW-EV, SW-TRβ); test: LY294002 inhibition of ATC cell migration; type: cell-based, human; conditions: presence of liganded TRβ (SW-TRβ vs SW-EV)
Procedure: Migration Assay. Cell migration was determined by wound healing assay. Cells were plated and allowed to grow to 100% confluency. Two hours prior to scratching, cells were treated with […] Mitomycin C. A scratch was performed with a P1000 pipette tip and debris was washed away with PBS. Migration media was supplemented with 10^−8 M T3. Images were obtained at 0, 24, 48, and 72 hours. Wound closure was measured using ImageJ macro “Wound Healing Tool” (http://dev.mri.cnrs.fr/projects/imagej-macros/wiki/Wound_Healing_Tool). Values were normalized so that the initial scratch was 0% closure.
TRβ also enhances PI3K inhibitor LY294002 inhibition of ATC cell growth and cell migration. […] LY294002 induces a 50% reduction in growth of normal-like thyroid cells NthyOri in which TRβ is expressed. […] Liganded TRβ suppresses ATC cell growth and migration as a tumor suppressor and critically enhances the effectiveness of a potential therapeutic agent.

[13] = test system: MDA-MB-468 cells (EV, TRβ); test: Mammosphere growth, triple negative breast cancer cells; type: cell-based
Source text: Data are mean+/−SD; * indicates p<0.05 determined by t-test.

[14] = test system: SW1736 cells (SW-EV, SW-TRβ); test: Buparlisib with or without GC-1, cell viability/growth, 24 hr; type: cell-based, human
Procedure: SW1736 cells transduced with lentiviral vector (EV) or lentiviral vector containing TRβ (TRβ) were treated with buparlisib (0 μM, 0.1 μM, 1 μM, or 10 μM) for 24 hours.

For `CC(=O)c1c(C)c2cnc(Nc3ccc(N4CCNCC4)cn3)nc2n(C2CCCC2)c1=O` [Palbociclib, 6-acetyl-8-cyclopentyl-5-methyl-2-[(5-piperazin-1-ylpyridin-2-yl)amino]pyrido[6,5-d]pyrimidin-7-one], the “cell growth, combination with GC-1” value [1] was “synergistic effect to reduce cell growth”.

In the case of `Cc1cc(OCC(=O)O)cc(C)c1Cc1ccc(O)c(C(C)C)c1` [GC-1, 2-[4-[(4-hydroxy-3-propan-2-ylphenyl)methyl]-3,5-dimethylphenoxy]acetic acid], the “cleaved PARP and cleaved caspase 3” value ([2]; GC-1, 5 days) is reported as “significantly increased the presence of cleaved PARP and cleaved caspase 3”, the “apoptosis (cleaved PARP and caspase)” value ([2]; five days) is reported as “induces apoptosis” and the metastases (KTC-2 [3]) is reported as “no visually detectable metastases”. For the same molecule, the tumor vascularization (KTC-2 [3]) was “minimal vascularization”, the cell migration [4] was “able to slow migration” and the cell toxicity [5] was “cause cell toxicity”. For the same molecule, the “reduction in thyrosphere formation” value [6] was “greater than 80%”, the “wound closure, agent alone” value ([7]; GC-1 10^−8M or inhibitor alone) was “able to prevent wound closure of all tumor cell lines with similar success as each inhibitor alone” and the mammosphere formation (MCF7; MCF7, 10 nM GC-1 alone) was “could reduce mammosphere formation”. For the same molecule, the ATC cell death ([8]; SW1736 with endogenous TRβ (EV)) was “induces ATC cell death”, the “reduction in cell growth (AUC of growth curve)” value ([8]; SW-EV) was 50% and the ATC cell death ([8]; SW-TRβ (lentiviral transduction)) was “amplified with higher levels of TRβ”. The “reduction in cell growth (AUC of growth curve)” value ([8]; SW-TRβ) was 75%.

For `CNC(=O)c1cc(Oc2ccc(NC(=O)Nc3ccc(Cl)c(C(F)(F)F)c3)cc2)ccn1` [Sorafenib, 4-[4-[[4-chloro-3-(trifluoromethyl)phenyl]carbamoylamino]phenoxy]-N-methylpyridine-2-carboxamide], the “thyrosphere formation/outgrowth, agent alone” value [9] was “most effective overall”.

With `CC/C(=C(\c1ccccc1)c1ccc(OCCN(C)C)cc1)c1ccccc1` [tamoxifen] the “effect of inhibitor in the presence of GC-1” value (MCF7; MCF7, 10 nM GC-1, 5 days) was “enhanced the effect”.

For `Oc1ccccc1-c1ccc2cccnc2n1` [2-NP, 2-(1,8-naphthyridin-2-yl)phenol], the “reduction in cell growth” value (KTC-2 [10]) was “recapitulates the effect of T3-TRβ”, the “reduction in cell growth” value (OCUT-2) was “recapitulates the effect of T3-TRβ” and the “reduction in cell growth” value (SW1736) was “recapitulates the effect of T3-TRβ; also recorded: most responsive”.

Molecule `O=c1cc(N2CCOCC2)oc2c(-c3ccccc3)cccc12` [LY294002, 2-(morpholin-4-yl)-8-phenyl-4H-chromen-4-one] has an EC50 ([11]; SW-1736, SW-EV (no TRβ re-expression), T3) of 5.21 µM, an EC50 ([11]; SW-1736, SW-EV, unit inferred) of 5.21 µM and an EC50 ([11]; SW-1736, SW-TRβ, liganded (T3)) of 1.13 µM. The EC50 ([11]; SW-1736, SW-TRβ, liganded (T3), unit inferred) was 1.13 µM, the “pAkt vs total Akt and p mTOR vs total mTOR” value (PI3K) was “decreased pAkt compared with total Akt and decreased p mTOR compared with total mTOR” and the reduction in growth (NthyOri) was 50%. The “inhibition of ATC cell migration” value [12] was “enhances LY294002 inhibition of ATC cell migration”.

For `Nc1cc(C(F)(F)F)c(-c2cc(N3CCOCC3)nc(N3CCOCC3)n2)cn1` [Buparlisib, 5-(2,6-dimorpholin-4-ylpyrimidin-4-yl)-4-(trifluoromethyl)pyridin-2-amine], the “mammosphere growth, Buparlisib in the presence of GC-1” value ([13]; 10 nM GC-1, 5 days) was “increases the efficacy of Buparlisib to reduced mammosphere growth”, the “reduction of effective Buparlisib in the presence of GC-1” value ([13]; mammospheres from MDA-MB-468-TRβ cells) was 50% and the metastases (KTC-2 [3]) was “detectable metastases to the heart”. For the same molecule, the tumor growth (KTC-2 [3]) was “smaller non-nodular growth”, the “wound closure, inhibitor combined with GC-1” value ([7]; KTC-2 cells, GC-1 10^−8M plus 0.5 μM Buparlisib) was “exception” and the toxicity to cells ([14]; 10 μM) was “toxic”. The cell viability ([14]; SW-EV, buparlisib alone 0-10 μM) was “concentration dependent decrease in cell viability”, the “sensitivity of cell growth to buparlisib” value ([14]; SW-TRβ plus GC-1 10^−8M) was “increase the sensitivity to buparlisib at 0.1 and 1 μM” and the “EC50, cell viability” value ([14]; SW-TRβ vs SW-EV) was “significantly reduced EC50”. The “cell growth, combination with GC-1” value [1] was “synergistic effect to reduce cell growth”.
